The text below walks through data of patent US9914760B2, “Methods of identifying, isolating and using odorant and aroma receptors” (Firmenich SA, priority 2013, dated 2018).

One assay deals with Olfr748. The experiment in a line: in vitro receptor response to indole or skatole. The format is cell-based, mouse. Conditions: despite proper cell surface expression (immunostaining). An excerpt: (§1) In another aspect, human receptor OR52N2 (SEQ ID NO: 11 and SEQ ID NO: 12) was identified because of its sequence similarity to mouse Olfr665 (SEQ ID NO: 9 and SEQ ID NO: 10), an indole/skatole receptor isolated from olfactory neurons responding to both indole and skatole (Example 6). Human receptor OR11G2 (SEQ ID NO: 13 and SEQ ID NO: 14) was identified because of its sequence similarity to mouse Olfr740 (SEQ ID NO: 1 and SEQ ID NO: 2), an indole/skatole receptor isolated from olfactory neurons responding to both indole and skatole (Example 6). Human receptor OR5AC2 (SEQ ID NO: 75 and SEQ ID NO: 76) was identified because of its sequence similarity to mouse Olfr207 (SEQ ID NO: 77 and SEQ ID NO: 78), an indole/skatole receptor isolated from olfactory neurons responding to both indole and skatole (Example 6). Human receptor OR4C15 (SEQ ID NO: 79 and SEQ ID NO: 80) was identified because of its sequence similarity to mouse Olfr1211 (SEQ ID NO: 81 and SEQ ID NO: 82), an indole/skatole receptor isolated from olfactory neurons responding to both indole and skatole (Example 6). Human receptor OR8S1 (SEQ ID NO: 83 and SEQ ID NO: 84) was identified because of its sequence similarity to mouse Olfr257 (SEQ ID NO: 85 and SEQ ID NO: 86), an indole/skatole receptor isolated from olfactory neurons responding to both indole and skatole (Example 6). Mouse receptor Olfr665 (SEQ ID NO: 9 and SEQ ID NO: 10) was identified directly from NGS data from isolated olfactory neurons responding to both indole and skatole (Example 6). Mouse receptor Olfr740 (SEQ ID NO: 1 and SEQ ID NO: 2) was identified directly from NGS data from isolated olfactory neurons responding to both indole and skatole (Example 6).

In another assay the test system is Olfr747. The experiment in a line: in vitro receptor response to indole or skatole. Conditions: despite proper cell surface expression (immunostaining). The format is cell-based, mouse.
Source text: as §1

For the next assay, the system named is Olfr736. The experiment in a line: in vitro receptor response to indole or skatole. The format is cell-based, mouse. Conditions: likely lack of cell surface expression.
Source text: as §1

Another assay has as its system Olfr665. The experiment in a line: cell-based calcium-flux assay, HEK293T with Gα15. The arrangement: species or system mouse. Conditions: dose-response curves FIG. 6D-J. An excerpt: (§2) The activity of candidate human indole and skatole malodors receptors OR52N2 (SEQ ID NO: 11 and SEQ ID NO: 12), OR11G2 (SEQ ID NO: 13 and SEQ ID NO: 14, OR5AC2 (SEQ ID NO: 75 and SEQ ID NO: 76), OR4C15 (SEQ ID NO: 79 and SEQ ID NO: 80), OR8S1 (SEQ ID NO: 83 and SEQ ID NO: 84), OR11H6 (SEQ ID NO: 15 and SEQ ID NO: 16) and OR11H4 (SEQ ID NO: 49 and SEQ ID NO: 50) and candidate mouse indole and skatole malodors receptors Olfr665 (SEQ ID NO: 9 and SEQ ID NO 10) and Olfr740 (SEQ ID NO: 1 and SEQ ID NO 2) were confirmed in cell-based calcium-flux assays (FIGS. 6A to 6J). Cells stably co-expressing Rho-tagged human OR52N2 (FIG. 6A, B) or OR11G2 (FIG. 6C) and Gα15 (SEQ ID NO: 25) were exposed to increasing concentrations of skatole or indole. FIG. 6B is a repeat experiment showing similar activity of OR52N2 with indole and skatole. Odorant-induced OR52N2 or OR11G2 activity was detected by measuring the maximum Calcium 5 dye (Molecular Devices) fluorescence change following odorant exposure. Activity is defined as the baseline corrected Relative Fluorescent Units (RFU) ratios normalized to the highest RFU in the experiment in FIG. 6A. […] A cell line lacking a receptor, for example hOR52N2, was used as a control for non-specific activity at high concentrations (‘Indole control’ and ‘Skatole control’). The human receptor OR52N2 (SEQ ID NO: 11 and SEQ ID NO: 12) was identified because of its sequence similarity to mouse Olfr665 (SEQ ID NO: 10), an indole/skatole receptor isolated from olfactory neurons responding to both indole and skatole. The human receptor OR11G2 (SEQ ID NO: 13 and SEQ ID NO: 14) was identified because of its sequence similarity to mouse Olfr740 (SEQ ID NO: 2), an indole/skatole receptor isolated from olfactory neurons responding to both indole and skatole. The receptors were modified with the Rho sequence and stably expressed in HEK 293T cells. Further examples show indole and skatole dose-response curves for human receptors OR5AC2, OR4C15, OR8S1, OR11H6, OR11H4 and mouse receptors Olfr665 and Olfr740 (FIG. 6D-J). The human receptor OR5AC2 (SEQ ID NO: 75 and SEQ ID NO: 76) was identified because of its sequence similarity to mouse Olfr207 (SEQ ID NO: 78), a receptor isolated from olfactory neurons responding to both indole and skatole. The human receptor OR4C15 (SEQ ID NO: 79 and SEQ ID NO: 80) was identified because of its sequence similarity to mouse Olfr211 (SEQ ID NO: 82), a receptor isolated from olfactory neurons responding to both indole and skatole. The human receptor OR8S1 (SEQ ID NO: 83 and SEQ ID NO: 84) was identified because of its sequence similarity to mouse Olfr257 (SEQ ID NO: 86), a receptor isolated from olfactory neurons responding to both indole and skatole. […]

Another assay relates to Olfr740. The experiment in a line: cell-based calcium-flux assay, HEK293T with Gα15. Conditions: dose-response curves FIG. 6D-J. Also on record: species or system mouse.
Source text: as §2

As for `c1ccc2[nH]ccc2c1` [indole], the receptor response result with Olfr748, in the assay on Olfr747 and in the assay with Olfr736 was “failed to respond” throughout. In addition, the “receptor activation in vitro” value in the assay on Olfr665 and with Olfr740 was “activated” throughout.

`Cc1c[nH]c2ccccc12` [skatole, 3-methyl indole]: the receptor response entry in the assay on Olfr748, in the assay on Olfr747 and in the assay with Olfr736 was “failed to respond” throughout. The “receptor activation in vitro” value with Olfr665 and in the assay on Olfr740 was “activated” throughout.
